Test system: 435261-313-R-J1-PDC tumor spheroid viability
Assay: Anticancer human tumor 435261-313-R-J1-PDC patient-derived colon adenocarcinoma cell line growth inhibition [PI3K]
Details: spheroids with HUVEC and MSC; for IC50: curve of first compound; for viability, T/C: stronger effect = lower value
Procedure, shortened: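 Combination activity was assessed by viability in multicellular tumor spheroids carrying HUVEC and MSC components. Agents were tested with PI3K inhibitors from a Cmax-based top dose (or 10 microM) downward in half-log increments.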

[1] = second compound 0.00316 µM, first compound 0.0316 µM
[2] = second compound 0.00316 µM, first compound 0.1 µM
[3] = second compound 0.00316 µM, first compound 0.316 µM
[4] = second compound 0.00316 µM, first compound 1 µM
[5] = second compound 0.00316 µM, first compound 3.16 µM
[6] = second compound 0.00316 µM, first compound 10 µM
[7] = second compound 0.01 µM, first compound 0.0316 µM
[8] = second compound 0.01 µM, first compound 0.1 µM
[9] = second compound 0.01 µM, first compound 0.316 µM
[10] = second compound 0.01 µM, first compound 1 µM
[11] = second compound 0.01 µM, first compound 3.16 µM
[12] = second compound 0.01 µM, first compound 10 µM
[13] = second compound 0.0316 µM, first compound 0.0316 µM
[14] = second compound 0.0316 µM, first compound 0.1 µM
[15] = second compound 0.0316 µM, first compound 0.316 µM
[16] = second compound 0.0316 µM, first compound 1 µM
[17] = second compound 0.0316 µM, first compound 3.16 µM
[18] = second compound 0.0316 µM, first compound 10 µM
[19] = second compound 0.1 µM, first compound 0.0316 µM
[20] = second compound 0.1 µM, first compound 0.1 µM
[21] = second compound 0.1 µM, first compound 0.316 µM
[22] = second compound 0.1 µM, first compound 1 µM
[23] = second compound 0.1 µM, first compound 3.16 µM
[24] = second compound 0.1 µM, first compound 10 µM
[25] = second compound 0.316 µM, first compound 0.0316 µM
[26] = second compound 0.316 µM, first compound 0.1 µM
[27] = second compound 0.316 µM, first compound 0.316 µM
[28] = second compound 0.316 µM, first compound 1 µM
[29] = second compound 0.316 µM, first compound 3.16 µM
[30] = second compound 0.316 µM, first compound 10 µM
[31] = second compound 1 µM, first compound 0.0316 µM
[32] = second compound 1 µM, first compound 0.1 µM
[33] = second compound 1 µM, first compound 0.316 µM
[34] = second compound 1 µM, first compound 1 µM
[35] = second compound 1 µM, first compound 3.16 µM
[36] = second compound 1 µM, first compound 10 µM
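Further: spheroids exposed to compounds for 7 days.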

For `C=CC(=O)N1CCN(c2nc(=O)n(-c3c(C)ccnc3C(C)C)c3nc(-c4c(O)cccc4F)c(F)cc23)C(C)C1` (stereo not drawn) + COc1c(OCCCN2CCOCC2)ccc2c3n(c(=NC(=O)c4cnc(N)nc4)nc12)CCN3, the IC50 (second compound 0.00316 µM) was > 10000 nM, the IC50 (second compound 0.01 µM) was < 31.6 nM and the IC50 (second compound 0.0316 µM) was < 31.6 nM. For the same molecule, the IC50 (second compound 0.1 µM) was < 31.6 nM, the IC50 (second compound 0.316 µM) was < 31.6 nM and the IC50 (second compound 1 µM) was < 31.6 nM. The viability, T/C [1] was 86.8%, the viability, T/C [2] was 78.2% and the viability, T/C [3] was 99%. The viability, T/C [4] was 63.5%, the viability, T/C [5] was 101% and the viability, T/C [6] was 97.9%. For the same molecule, the viability, T/C [7] was 45.5%, the viability, T/C [8] was 56.6% and the viability, T/C [9] was 47.7%. The viability, T/C [10] was 64.7%, the viability, T/C [11] was 60.2% and the viability, T/C [12] was 85%. It also gave a viability, T/C [13] of 25.5%, a viability, T/C [14] of 36.7% and a viability, T/C [15] of 29%. It also gave a viability, T/C [16] of 30.6%, a viability, T/C [17] of 26.3% and a viability, T/C [18] of 30.6%. For the same molecule, the viability, T/C [19] was 15.9%, the viability, T/C [20] was 16.5% and the viability, T/C [21] was 17.5%. It also gave a viability, T/C [22] of 18.7%, a viability, T/C [23] of 15.4% and a viability, T/C [24] of 16.1%. It also gave a viability, T/C [25] of 8.2%, a viability, T/C [26] of 8.82% and a viability, T/C [27] of 7.92%. The viability, T/C [28] was 8.17%, the viability, T/C [29] was 6.9% and the viability, T/C [30] was 5.27%. The viability, T/C [31] was 4.55%, the viability, T/C [32] was 3.78% and the viability, T/C [33] was 3.56%. The viability, T/C [34] was 3.98%, the viability, T/C [35] was 3.29% and the viability, T/C [36] was 2.04%.

With `CC(C)NCC(C(=O)N1CCN(c2ncnc3c2C(C)CC3O)CC1)c1ccc(Cl)cc1` (stereo not drawn) + COc1c(OCCCN2CCOCC2)ccc2c3n(c(=NC(=O)c4cnc(N)nc4)nc12)CCN3 the IC50 (second compound 0.00316 µM) was 765 nM, the IC50 (second compound 0.01 µM) was 664 nM and the IC50 (second compound 0.0316 µM) was < 31.6 nM. The IC50 (second compound 0.1 µM) was < 31.6 nM, the IC50 (second compound 0.316 µM) was < 31.6 nM and the IC50 (second compound 1 µM) was < 31.6 nM. For the same molecule, the viability, T/C [1] was 77.5%, the viability, T/C [2] was 57.4% and the viability, T/C [3] was 67.4%. For the same molecule, the viability, T/C [4] was 45%, the viability, T/C [5] was 25.9% and the viability, T/C [6] was 18.1%. It also gave a viability, T/C [7] of 35.5%, a viability, T/C [8] of 72.5% and a viability, T/C [9] of 53.8%. The viability, T/C [10] was 45.8%, the viability, T/C [11] was 37.2% and the viability, T/C [12] was 22.3%. The viability, T/C [13] was 29%, the viability, T/C [14] was 24.9% and the viability, T/C [15] was 40.3%. For the same molecule, the viability, T/C [16] was 17.9%, the viability, T/C [17] was 17.2% and the viability, T/C [18] was 13.7%. The viability, T/C [19] was 16.9%, the viability, T/C [20] was 13.9% and the viability, T/C [21] was 18.2%. It also gave a viability, T/C [22] of 14.3%, a viability, T/C [23] of 14.1% and a viability, T/C [24] of 8.48%. It also gave a viability, T/C [25] of 8.02%, a viability, T/C [26] of 10% and a viability, T/C [27] of 8.48%. For the same molecule, the viability, T/C [28] was 7.53%, the viability, T/C [29] was 6.85% and the viability, T/C [30] was 3.75%. It also gave a viability, T/C [31] of 3.46%, a viability, T/C [32] of 4.26% and a viability, T/C [33] of 3.88%. It also gave a viability, T/C [34] of 3.78%, a viability, T/C [35] of 3.18% and a viability, T/C [36] of 1.67%.

For `CCN1CCN(Cc2ccc(Nc3ncc(F)c(-c4cc(F)c5nc(C)n(C(C)C)c5c4)n3)nc2)CC1` + COc1c(OCCCN2CCOCC2)ccc2c3n(c(=NC(=O)c4cnc(N)nc4)nc12)CCN3, the IC50 (second compound 0.00316 µM) was 52.9 nM, the IC50 (second compound 0.01 µM) was < 3.16 nM and the IC50 (second compound 0.0316 µM) was < 3.16 nM. The IC50 (second compound 0.1 µM) was < 3.16 nM, the IC50 (second compound 0.316 µM) was < 3.16 nM and the IC50 (second compound 1 µM) was < 3.16 nM. The viability, T/C (second compound 0.00316 µM, first compound 0.00316 µM) was 49.3%, the viability, T/C (second compound 0.00316 µM, first compound 0.01 µM) was 57.2% and the viability, T/C [1] was 65.2%. It also gave a viability, T/C [2] of 35.8%, a viability, T/C [3] of 40.6% and a viability, T/C [4] of 46.6%. The viability, T/C (second compound 0.01 µM, first compound 0.00316 µM) was 42.3%, the viability, T/C (second compound 0.01 µM, first compound 0.01 µM) was 39.8% and the viability, T/C [7] was 35.4%. It also gave a viability, T/C [8] of 33%, a viability, T/C [9] of 32.7% and a viability, T/C [10] of 42.5%. For the same molecule, the viability, T/C (second compound 0.0316 µM, first compound 0.00316 µM) was 28.9%, the viability, T/C (second compound 0.0316 µM, first compound 0.01 µM) was 22.6% and the viability, T/C [13] was 24.1%. For the same molecule, the viability, T/C [14] was 23.3%, the viability, T/C [15] was 26.6% and the viability, T/C [16] was 25.2%. The viability, T/C (second compound 0.1 µM, first compound 0.00316 µM) was 15.2%, the viability, T/C (second compound 0.1 µM, first compound 0.01 µM) was 15.4% and the viability, T/C [19] was 18.1%. The viability, T/C [20] was 13.7%, the viability, T/C [21] was 15.6% and the viability, T/C [22] was 16.7%. The viability, T/C (second compound 0.316 µM, first compound 0.00316 µM) was 8.47%, the viability, T/C (second compound 0.316 µM, first compound 0.01 µM) was 8.29% and the viability, T/C [25] was 8.24%. It also gave a viability, T/C [26] of 6.93%, a viability, T/C [27] of 8.43% and a viability, T/C [28] of 9.13%. It also gave a viability, T/C (second compound 1 µM, first compound 0.00316 µM) of 4.09%, a viability, T/C (second compound 1 µM, first compound 0.01 µM) of 3.66% and a viability, T/C [31] of 3.83%. It also gave a viability, T/C [32] of 2.75%, a viability, T/C [33] of 3.7% and a viability, T/C [34] of 3.49%.

For `Cn1nccc1Nc1nccc(-c2ccn(C(CO)c3ccc(Cl)c(F)c3)c(=O)c2)n1` (stereo not drawn) + COc1c(OCCCN2CCOCC2)ccc2c3n(c(=NC(=O)c4cnc(N)nc4)nc12)CCN3, the IC50 (second compound 0.00316 µM) was 238 nM, the IC50 (second compound 0.01 µM) was 97.3 nM and the IC50 (second compound 0.0316 µM) was < 31.6 nM. For the same molecule, the IC50 (second compound 0.1 µM) was < 31.6 nM, the IC50 (second compound 0.316 µM) was < 31.6 nM and the IC50 (second compound 1 µM) was < 31.6 nM. The viability, T/C [1] was 70.2%, the viability, T/C [2] was 56.1% and the viability, T/C [3] was 47.6%. It also gave a viability, T/C [4] of 32.4%, a viability, T/C [5] of 34.9% and a viability, T/C [6] of 13.1%. For the same molecule, the viability, T/C [7] was 64.3%, the viability, T/C [8] was 48.8% and the viability, T/C [9] was 38.8%. The viability, T/C [10] was 26.3%, the viability, T/C [11] was 22.4% and the viability, T/C [12] was 14.3%. For the same molecule, the viability, T/C [13] was 31.7%, the viability, T/C [14] was 28.7% and the viability, T/C [15] was 17.7%. It also gave a viability, T/C [16] of 17.9%, a viability, T/C [17] of 17.3% and a viability, T/C [18] of 9.88%. For the same molecule, the viability, T/C [19] was 17.7%, the viability, T/C [20] was 13.6% and the viability, T/C [21] was 10.8%. It also gave a viability, T/C [22] of 8.53%, a viability, T/C [23] of 5.16% and a viability, T/C [24] of 1.19%. The viability, T/C [25] was 9.14%, the viability, T/C [26] was 5.37% and the viability, T/C [27] was 3.27%. The viability, T/C [28] was 2.55%, the viability, T/C [29] was 0.85% and the viability, T/C [30] was 0.46%. For the same molecule, the viability, T/C [31] was 4.18%, the viability, T/C [32] was 2.97% and the viability, T/C [33] was 1.36%. For the same molecule, the viability, T/C [34] was 1.15%, the viability, T/C [35] was 0.78% and the viability, T/C [36] was 0.48%.
